Results from patent publication US9283208B2, “Medicaments and methods for treating cancer” (NIIKI PHARMA INC., priority 2011, dated 2016).
Marks after values point to notes of the source that are not given here.

Columns and labels:
[1] = Pharmacokinetics in patients: plasma total ruthenium; type: in vivo, human; details: for C1D8 Hour 0 ng/mL Ru / C2D1 Hour 0 ng/mL Ru: pre-infusion trough
Method: (§1) Pharmacokinetics: PK samples were obtained 0, 0.25, 0.5, 1, 2, 4, 6-8, 10-12, and 24 hours after the start of the infusion on Cycle 1 Day 1 as well as pre-infusion on Cycle 1 Day 8 and Cycle 2 Day 1. Plasma and urine were analyzed for total ruthenium [Ru] (free and bound). […] Peak plasma Ru levels were achieved by hour 2 (FIG. 2A). […] The estimated T½ is 91.4-112 hours.

[2] = tested on: patients with advanced solid tumors refractory to treatment; experiment: Phase I dose-escalation trial (US): safety, tolerability, DLT and MTD; type: in vivo, human
Description: (§2) Two Phase I dose-escalation clinical studies involving sodium trans-[tetrachlorobis(1H-indazole)ruthenate (III)] (“test drug”) have been conducted. The primary objective of both studies is to determine the safety, tolerability and maximal tolerated dose (MTD) of the test drug. Secondary objectives are to estimate the PK parameters, to identify any preliminary evidence of anti-tumor activity of the test drug in patients with advanced cancers, and to explore pharmacodynamic (PD) endpoints which may be of use in the further development of the test drug.
(§3) In the first trial which has been conducted in two centers in the US, the “test drug” was given intravenously once a week, i.e., on days 1, 8, and 15 of each 28-day cycle to patients with advanced solid tumors refractory to treatment. The patients had advanced solid tumors that had been heavily treated previously, had failed an average of 7 previous lines of chemotherapy, and had progressing disease at the time of entry into the trial. Standard 3+3 design with expanded cohort up to 25 patients at the maximal tolerated dose (MTD).
Major Inclusion/Exclusion Criteria: • Patients≧18 years with histologically or cytologically confirmed advanced solid tumors refractory to standard therapies • ECOG PS 0 or 1 • Adequate hematologic, hepatic and renal function • No symptomatic CNS metastases, no primary brain tumors • No evidence of ischemia, recent MI, or significant abnormality on ECG • No Peripheral neuropathy ≧Grade 2 • Minimum life expectancy ≧12 weeks
Definition of Dose Limiting Toxicity (DLT):
Toxicity severity graded according to the CTCAE (ver. 3.0); occurring during Cycle 1 and related to test drug: • Grade 4 neutropenia for ≧7 days • Febrile neutropenia • Grade 4 thrombocytopenia or Grade • ≧Grade 2 neurotoxicity • ≧Grade 2 cardiotoxicity • Grade 2 hypersensitivity reaction or infusion reaction • Any other non-hematologic Grade 3 or 4 toxicity other than nausea/vomiting or alopecia • Inability to complete the first cycle due to any toxicity thought to be related to test drug.

[3] = Pharmacokinetics in patients: urinary excretion of ruthenium; type: in vivo, human; details: in the 24 hours following Cycle 1 Day 1 dosing
Method: as §1

[4] = tested on: advanced solid tumors refractory to treatment; experiment: Phase I dose-escalation trial (UK): anti-tumor effect; type: in vivo, human
Description: as §2
(§4) The second trial was conducted in two centers in the United Kingdom (UK) with the test drug being administered on days 1 through 4 of each 21-day cycle to patients with advanced solid tumors refractory to treatment. The patients had been heavily pre-treated and had failed an average of 3 previous lines of chemotherapy. Dose escalation progressed from 20 to 500 mg/m^2.

certain types of cancer = details: See U.S. Pat. No. 7,338,946; cited from earlier work
[5] = tested on: patients with advanced solid tumors refractory to treatment; experiment: Infusional fever with or without steroid premedication (US trial); type: in vivo, human
Method: (§5) Thereafter, in the US trial, in some patients, premedication of decadron (dexamethasone) was administered, with or without 5HT3 antagonists (serotonin antagonists) like ondansetron and granisetron. The decadron was given to prevent fever, at 4-10 mg IV. […] None of the patients premedicated with decadron had any incidence of infusion-related fever.

[6] = tested on: advanced solid tumors refractory to treatment; experiment: Phase I dose-escalation trial (US): anti-tumor activity (partial response or stable disease); type: in vivo, human
Description: as §2, §3
36 pts completed ≧one cycle of therapy and are evaluable to assess antitumor efficacy. […] All patients had PD at study entry.

[7] = tested on: patients with advanced solid tumors refractory to treatment; experiment: Phase I dose-escalation trial (UK): adverse reactions; type: in vivo, human; details: dose of 320 mg/m^2 and above
Method: as §4, §5

[8] = US trial, IV once a week on days 1, 8, 15 of 28-day cycle
[9] = 320 mg/m^2, total drug 630 mg, NET (carcinoid tumor of small intestine), 3 prior systemic therapies
[10] = 320 mg/m^2, total drug 630 mg, NET (carcinoid tumor of small intestine), 3 prior systemic therapies, listed as Sodium trans-[tetrachlorobis(1H-indazole)ruthenate (III)]

Compound: [Cl][Ru-]([Cl])([Cl])[Cl].[Na+].c1ccc2[nH]ncc2c1.c1ccc2[nH]ncc2c1 [test drug, sodium trans-[tetrachlorobis(1H-indazole)ruthenate (III)]]
- C1D1 Hour 24 ng/mL Ru ([1]; 20 mg/m^2, plasma total Ru): 1366 ng/mL Ru
- C1D8 Hour 0 ng/mL Ru ([1]; 20 mg/m^2, plasma total Ru): 528 ng/mL Ru
- C2D1 Hour 0 ng/mL Ru ([1]; 20 mg/m^2, plasma total Ru): 670 ng/mL Ru
- C1D1 Hour 24 ng/mL Ru ([1]; 40 mg/m^2, plasma total Ru): 2884 ng/mL Ru
- C1D8 Hour 0 ng/mL Ru ([1]; 40 mg/m^2, plasma total Ru): 1197 ng/mL Ru
- C2D1 Hour 0 ng/mL Ru ([1]; 40 mg/m^2, plasma total Ru): 1472 ng/mL Ru
- C1D1 Hour 24 ng/mL Ru ([1]; 80 mg/m^2, plasma total Ru): 4831 ng/mL Ru
- C1D1 Hour 24 ng/mL Ru ([1]; 160 mg/m^2, plasma total Ru): 4639 ng/mL Ru
- C1D8 Hour 0 ng/mL Ru ([1]; 160 mg/m^2, plasma total Ru): 4000 ng/mL Ru
- C2D1 Hour 0 ng/mL Ru ([1]; 160 mg/m^2, plasma total Ru): 6588 ng/mL Ru
- C1D1 Hour 24 ng/mL Ru ([1]; 320 mg/m^2, plasma total Ru): 20033 ng/mL Ru
- C1D8 Hour 0 ng/mL Ru ([1]; 320 mg/m^2, plasma total Ru): 7667 ng/mL Ru
- C2D1 Hour 0 ng/mL Ru ([1]; 320 mg/m^2, plasma total Ru): 10126 ng/mL Ru
- C1D1 Hour 24 ng/mL Ru ([1]; 420 mg/m^2, plasma total Ru): 25921 ng/mL Ru
- C1D8 Hour 0 ng/mL Ru ([1]; 420 mg/m^2, plasma total Ru): 9595 ng/mL Ru
- C2D1 Hour 0 ng/mL Ru ([1]; 420 mg/m^2, plasma total Ru): 14698 ng/mL Ru
- C1D1 Hour 24 ng/mL Ru ([1]; 500 mg/m^2, plasma total Ru): 28070 ng/mL Ru
- C1D8 Hour 0 ng/mL Ru ([1]; 500 mg/m^2, plasma total Ru): 11880 ng/mL Ru
- C2D1 Hour 0 ng/mL Ru ([1]; 500 mg/m^2, plasma total Ru): 13000 ng/mL Ru
- C1D1 Hour 24 ng/mL Ru ([1]; 625 mg/m^2, plasma total Ru): 35216 ng/mL Ru
- C1D8 Hour 0 ng/mL Ru ([1]; 625 mg/m^2, plasma total Ru): 12303 ng/mL Ru
- C2D1 Hour 0 ng/mL Ru ([1]; 625 mg/m^2, plasma total Ru): 14363 ng/mL Ru
- C1D1 Hour 24 ng/mL Ru ([1]; 780 mg/m^2, plasma total Ru): 43105 ng/mL Ru
- C1D8 Hour 0 ng/mL Ru ([1]; 780 mg/m^2, plasma total Ru): 17001 ng/mL Ru
- C2D1 Hour 0 ng/mL Ru ([1]; 780 mg/m^2, plasma total Ru): 22125 ng/mL Ru
- dose proportionality of Cmax and AUC0-168 ([1]; 20 to 780 mg/m^2): good dose proportionality
- time by which peak plasma Ru levels were achieved ([1]; after start of infusion, Cycle 1 Day 1): ≤ 2 h
- accumulation of Ru following dosing ([1]; noted by Cycle 1 Day 8 and Cycle 2 Day 1 levels): There is accumulation of Ru following dosing
- estimated T½ ([1]; plasma total Ru, patients): 91.4 to 112 h
- Patients w/ DLT ([2]; 320 mg/m^2, 7 patients dosed): 1
- major adverse event related to the test drug ([2]; 320 mg/m^2 on days 1, 8, 15 of 28-day cycle, carcinoid tumor patient treated over 100 weeks): No major adverse event
- Patients w/ DLT ([2]; 625 mg/m^2, 6 patients dosed): 1
- Patients w/ DLT ([2]; 780 mg/m^2, 9 patients dosed): 3
- DLT Seen at 780 mg/m^2 ([2]; 780 mg/m^2, patient, not premedicated with steroids): A person had an infusion reaction consisting of fever
- time for Grade 2 creatinine elevation to return to baseline ([2]; 780 mg/m^2, person one): within 1 week.
- DLT Seen at 780 mg/m^2 ([2]; 780 mg/m^2, person one, following Cycle 1 Day 1 dosing, fatigue): Grade 1 fatigue following Cycle 1 Day 1 dosing associated
- DLT Seen at 780 mg/m^2 ([2]; 780 mg/m^2, person one, following Cycle 1 Day 1 dosing, nausea): person one had Grade 2 nausea, Grade 1 vomiting,
- time for Grade 2 creatinine elevation to return to baseline ([2]; 780 mg/m^2, person two): ≤ 3 weeks.
- DLT dose [2, 8]: 780 mg/m^2
- maximal tolerated dose (MTD) [2, 8]: 625 mg/m^2
- urinary excretion of the test drug derived ruthenium [3]: low urinary excretion
- # weeks of treatment ([4]; Patient 1, 20 mg/m^2, Esophageal): 2 weeks
- # weeks of treatment ([4]; Patient 2, 40 mg/m^2, Head & Neck): 4 weeks
- Anti-tumor effect (best response) ([4]; Patient 2, 40 mg/m^2 days 1 through 4 of 21-day cycle, Head & Neck): Stable disease
- # weeks of treatment ([4]; Patient 3, 80 mg/m^2, Mesothelioma): 2 weeks
- # weeks of treatment ([4]; Patient 4, 160 mg/m^2, Cecum): 2 weeks
- # weeks of treatment ([4]; Patient 5, 320 mg/m^2, Anal): 1 weeks
- # weeks of treatment ([4]; Patient 6, 500 mg/m^2, Rectal): 4 weeks
- Anti-tumor effect (best response) ([4]; Patient 6, 500 mg/m^2 days 1 through 4 of 21-day cycle, Rectal): Stable disease
- # weeks of treatment ([4]; Patient 7, 500 mg/m^2, Esophageal): 2 weeks
- inducing apoptosis in certain types of cancer (certain types of cancer): highly potent
- # with fever ([5]; 320 mg/m^2, no steroid premedication, 3 patients): 0
- # with fever ([5]; 320 mg/m^2, steroid premedication, 4 patients): 0
- # with fever ([5]; 420 mg/m^2, no steroid premedication, 3 patients, one had fever but then none after premed of additional doses): 2*
- # with fever ([5]; 420 mg/m^2, steroid premedication, 2 patients): 0
- # with fever ([5]; 500 mg/m^2, no steroid premedication, 1 patient): 1
- # with fever ([5]; 500 mg/m^2, steroid premedication, 2 patients): 0
- # with fever ([5]; 625 mg/m^2, no steroid premedication, 8 patients): 1
- # with fever ([5]; 625 mg/m^2, steroid premedication, 10 patients): 0
- # with fever ([5]; 780 mg/m^2, no steroid premedication, 3 patients): 1
- # with fever ([5]; 780 mg/m^2, steroid premedication, 6 patients): 0
- incidence of fever or chill on intravenous infusion ([5]; at therapeutically effective doses): higher incidence of fever or chill
- infusional fever ([5]; patients without premedication, US trial): high likelihood of infusional fever
- Patients replaced in due to PD in Cycle 1 ([6]; 320 mg/m^2, 7 patients dosed): 1
- Duration of therapy ([6]; 320 mg/m^2, total drug 531 mg, NSCLC, 7 prior systemic therapies): 16 weeks
- Duration of therapy ([6]; 320 mg/m^2, total drug 618 mg, NSCLC, 4 prior systemic therapies): 16 weeks
- Duration of therapy [6, 9]: 100+ weeks
- Response [6, 9]: PR (partial response (PR))
- Duration of therapy [6, 10]: over 100 weeks
- Response [6, 10]: tumor regression and partial response
- Patients replaced in due to PD in Cycle 1 ([6]; 420 mg/m^2, 5 patients dosed): 2
- Duration of therapy ([6]; 420 mg/m^2, total drug 832 mg, NET, 0 prior systemic therapies (failed 4 prior chemo- and Yttrium-embolization procedures)): 24 weeks
- Duration of therapy ([6]; 500 mg/m^2, total drug 890 mg, Unknown primary, 2 prior systemic therapies): 22 weeks
- Duration of therapy ([6]; 625 mg/m^2, total drug 1175 mg, GE Junction, 3 prior systemic therapies): 12+ weeks
- Duration of therapy ([6]; 625 mg/m^2, total drug 1190 mg, CRC, 3 prior systemic therapies): 12 weeks
- Patients replaced in due to PD in Cycle 1 ([6]; 780 mg/m^2, 9 patients dosed): 1
- Duration of therapy ([6]; 780 mg/m^2, total drug 1450 mg, Sarcoma, 3 prior systemic therapies): 16 weeks
- Duration of therapy ([6]; 780 mg/m^2, total drug 1544 mg, NET, 1 prior systemic therapy): 27+ weeks
- minimum effective dosage for general use of treating cancer ([6]; human dose escalating clinical trial): 320 mg/m^2
- adverse reactions [7]: fever and chill were seen

Compound: [Cl-].[Cl-].[Cl-].[Cl-].[Ru+3].c1ccc2[nH][nH+]cc2c1.c1ccc2[nH]ncc2c1.c1ccc2[nH]ncc2c1 [indazolium trans-[tetrachlorobis(1H-indazole)ruthenate (III)], reference compound]
- inducing apoptosis in certain types of cancer (certain types of cancer): highly potent
